Results reported in ChEMBL document CHEMBL3885881, “DrugMatrix”.

Species: Rattus norvegicus
Test: DrugMatrix - Regimen: Daily Repeat
Type: toxicity, organism-based, Sprague-Dawley
Parameters: regimen Daily Repeat, gender Male, age 6-8 weeks
Details: in vivo, po, route oral GAVAGE, vehicle 100 % WATER; for ABSOLUTE BASOPHIL / ABSOLUTE EOSINOPHIL / ABSOLUTE LYMPHOCYTE / ABSOLUTE MONOCYTE / ABSOLUTE SEGMENTED NEUTROPHIL / BASOPHIL / EOSINOPHIL / ERYTHROCYTE COUNT / HEMATOCRIT / HEMOGLOBIN / LEUKOCYTE COUNT / LYMPHOCYTE / MEAN CORPUSCULAR HEMOGLOBIN / MEAN CORPUSCULAR HEMOGLOBIN CONCENTRATION / MEAN CORPUSCULAR VOLUME / MONOCYTE / NEUTROPHIL / NUCLEATED RED BLOOD CELLS / PLATELET COUNT: tissue Blood; for ALANINE AMINOTRANSFERASE / ALKALINE PHOSPHATASE / ASPARTATE AMINOTRANSFERASE / BLOOD UREA NITROGEN / CARBON DIOXIDE / CHLORIDE / CHOLESTEROL / CREATINE PHOSPHOKINASE / CREATININE / GLUCOSE / LACTATE DEHYDROGENASE / LIPASE / PHOSPHORUS / POTASSIUM / SODIUM / TOTAL BILIRUBIN / TOTAL PROTEIN / URIC ACID: tissue Plasma
[1] = 0 mg/kg, 72 h, dose level Control, time 3 day
[2] = 0 mg/kg, 120 h, dose level Control, time 5 day
[3] = 10 mg/kg, 72 h, dose level Low, time 3 day
[4] = 10 mg/kg, 120 h, dose level Low, time 5 day

Cn1c(=O)c2[nH]cnc2n(C)c1=O.O [THEOPHYLLINE]
ABSOLUTE BASOPHIL [1]: 0 CELLS/uL | ABSOLUTE EOSINOPHIL [1]: 168.33 CELLS/uL | ABSOLUTE LYMPHOCYTE [1]: 13654.17 CELLS/uL | ABSOLUTE MONOCYTE [1]: 121 CELLS/uL | ABSOLUTE SEGMENTED NEUTROPHIL [1]: 1223.17 CELLS/uL | BASOPHIL [1]: 0% | EOSINOPHIL [1]: 1.17% | ERYTHROCYTE COUNT [1]: 5.7 x10E6/uL | HEMATOCRIT [1]: 35.33% | HEMOGLOBIN [1]: 13.97 G/DL | LEUKOCYTE COUNT [1]: 15.17 x10E3/uL | LYMPHOCYTE [1]: 89.83% | MEAN CORPUSCULAR HEMOGLOBIN [1]: 24.53 pg | MEAN CORPUSCULAR HEMOGLOBIN CONCENTRATION [1]: 39.53 G/DL | MEAN CORPUSCULAR VOLUME [1]: 62.05 fL | MONOCYTE [1]: 0.83% | NEUTROPHIL [1]: 8.17% | NUCLEATED RED BLOOD CELLS [1]: 0 /100WBC | PLATELET COUNT [1]: 1312.17 x10E3/uL | ALANINE AMINOTRANSFERASE [1]: 50.83 u/L | ALKALINE PHOSPHATASE [1]: 334.17 u/L | ASPARTATE AMINOTRANSFERASE [1]: 82.17 u/L | BLOOD UREA NITROGEN [1]: 15.5 mg/dL | CARBON DIOXIDE [1]: 31.33 mmol/L | CHLORIDE [1]: 99.83 MEQ/L | CHOLESTEROL [1]: 76 mg/dL | CREATINE PHOSPHOKINASE [1]: 272.17 u/L | CREATININE [1]: 0.17 mg/dL | GLUCOSE [1]: 143 mg/dL | LACTATE DEHYDROGENASE [1]: 157.5 u/L | LIPASE [1]: 9.33 u/L | PHOSPHORUS [1]: 12.18 mg/dL | POTASSIUM [1]: 6.78 MEQ/L | SODIUM [1]: 143.9 MEQ/L | TOTAL BILIRUBIN [1]: 0.22 mg/dL | TOTAL PROTEIN [1]: 5.85 G/DL | URIC ACID [1]: 1.7 mg/dL | ABSOLUTE BASOPHIL [2]: 0 CELLS/uL | ABSOLUTE EOSINOPHIL [2]: 0 CELLS/uL | ABSOLUTE LYMPHOCYTE [2]: 13539.33 CELLS/uL | ABSOLUTE MONOCYTE [2]: 177.67 CELLS/uL | ABSOLUTE SEGMENTED NEUTROPHIL [2]: 2116.33 CELLS/uL | BASOPHIL [2]: 0% | EOSINOPHIL [2]: 0% | ERYTHROCYTE COUNT [2]: 5.78 x10E6/uL | HEMATOCRIT [2]: 36.13% | HEMOGLOBIN [2]: 14.1 G/DL | LEUKOCYTE COUNT [2]: 15.83 x10E3/uL | LYMPHOCYTE [2]: 85.83% | MEAN CORPUSCULAR HEMOGLOBIN [2]: 24.42 pg | MEAN CORPUSCULAR HEMOGLOBIN CONCENTRATION [2]: 39 G/DL | MEAN CORPUSCULAR VOLUME [2]: 62.55 fL | MONOCYTE [2]: 0.83% | NEUTROPHIL [2]: 13.33% | NUCLEATED RED BLOOD CELLS [2]: 0.17 /100WBC | PLATELET COUNT [2]: 1281.17 x10E3/uL | ALANINE AMINOTRANSFERASE [2]: 55.5 u/L | ALKALINE PHOSPHATASE [2]: 345 u/L | ASPARTATE AMINOTRANSFERASE [2]: 92.5 u/L | BLOOD UREA NITROGEN [2]: 16.5 mg/dL | CARBON DIOXIDE [2]: 26.5 mmol/L | CHLORIDE [2]: 103.5 MEQ/L | CHOLESTEROL [2]: 78.5 mg/dL | CREATINE PHOSPHOKINASE [2]: 381.5 u/L | CREATININE [2]: 0.21 mg/dL | GLUCOSE [2]: 161.83 mg/dL | LACTATE DEHYDROGENASE [2]: 487.5 u/L | LIPASE [2]: 10.17 u/L | PHOSPHORUS [2]: 11.83 mg/dL | POTASSIUM [2]: 6.4 MEQ/L | SODIUM [2]: 146.95 MEQ/L | TOTAL BILIRUBIN [2]: 0.22 mg/dL | TOTAL PROTEIN [2]: 6.22 G/DL | URIC ACID [2]: 1.83 mg/dL | ABSOLUTE BASOPHIL [3]: 0 CELLS/uL | ABSOLUTE EOSINOPHIL [3]: 319 CELLS/uL | ABSOLUTE LYMPHOCYTE [3]: 14175 CELLS/uL | ABSOLUTE MONOCYTE [3]: 161.67 CELLS/uL | ABSOLUTE SEGMENTED NEUTROPHIL [3]: 1511 CELLS/uL | BASOPHIL [3]: 0% | EOSINOPHIL [3]: 2% | ERYTHROCYTE COUNT [3]: 5.5 x10E6/uL | HEMATOCRIT [3]: 34.43% | HEMOGLOBIN [3]: 13.03 G/DL | LEUKOCYTE COUNT [3]: 16.17 x10E3/uL | LYMPHOCYTE [3]: 87.67% | MEAN CORPUSCULAR HEMOGLOBIN [3]: 23.7 pg | MEAN CORPUSCULAR HEMOGLOBIN CONCENTRATION [3]: 37.87 G/DL | MEAN CORPUSCULAR VOLUME [3]: 62.57 fL | MONOCYTE [3]: 1% | NEUTROPHIL [3]: 9.33% | NUCLEATED RED BLOOD CELLS [3]: 0 /100WBC | PLATELET COUNT [3]: 1231 x10E3/uL | ALANINE AMINOTRANSFERASE [3]: 51.33 u/L | ALKALINE PHOSPHATASE [3]: 320.67 u/L | ASPARTATE AMINOTRANSFERASE [3]: 113 u/L | BLOOD UREA NITROGEN [3]: 12.33 mg/dL | CARBON DIOXIDE [3]: 28.33 mmol/L | CHLORIDE [3]: 101.33 MEQ/L | CHOLESTEROL [3]: 94 mg/dL | CREATINE PHOSPHOKINASE [3]: 788.33 u/L | CREATININE [3]: 0.2 mg/dL | GLUCOSE [3]: 138.33 mg/dL | LACTATE DEHYDROGENASE [3]: 1127.33 u/L | LIPASE [3]: 9.67 u/L | PHOSPHORUS [3]: 11.8 mg/dL | POTASSIUM [3]: 6.43 MEQ/L | SODIUM [3]: 144.43 MEQ/L | TOTAL BILIRUBIN [3]: 0.2 mg/dL | TOTAL PROTEIN [3]: 5.7 G/DL | URIC ACID [3]: 1.63 mg/dL | ABSOLUTE BASOPHIL [4]: 0 CELLS/uL | ABSOLUTE EOSINOPHIL [4]: 162 CELLS/uL | ABSOLUTE LYMPHOCYTE [4]: 12014 CELLS/uL | ABSOLUTE MONOCYTE [4]: 120 CELLS/uL | ABSOLUTE SEGMENTED NEUTROPHIL [4]: 1804 CELLS/uL | BASOPHIL [4]: 0% | EOSINOPHIL [4]: 1% | ERYTHROCYTE COUNT [4]: 5.5 x10E6/uL | HEMATOCRIT [4]: 34.77% | HEMOGLOBIN [4]: 13.6 G/DL | LEUKOCYTE COUNT [4]: 14.1 x10E3/uL | LYMPHOCYTE [4]: 85.67% | MEAN CORPUSCULAR HEMOGLOBIN [4]: 24.7 pg | MEAN CORPUSCULAR HEMOGLOBIN CONCENTRATION [4]: 39.13 G/DL | MEAN CORPUSCULAR VOLUME [4]: 63.2 fL | MONOCYTE [4]: 1% | NEUTROPHIL [4]: 12.33% | NUCLEATED RED BLOOD CELLS [4]: 0 /100WBC | PLATELET COUNT [4]: 1229 x10E3/uL | ALANINE AMINOTRANSFERASE [4]: 56 u/L | ALKALINE PHOSPHATASE [4]: 334.33 u/L | ASPARTATE AMINOTRANSFERASE [4]: 113.67 u/L | BLOOD UREA NITROGEN [4]: 15 mg/dL | CARBON DIOXIDE [4]: 23.33 mmol/L | CHLORIDE [4]: 103.33 MEQ/L | CHOLESTEROL [4]: 77.33 mg/dL | CREATINE PHOSPHOKINASE [4]: 1028.67 u/L | CREATININE [4]: 0.23 mg/dL | GLUCOSE [4]: 151.33 mg/dL | LACTATE DEHYDROGENASE [4]: 644.67 u/L | LIPASE [4]: 9 u/L | PHOSPHORUS [4]: 11.9 mg/dL | POTASSIUM [4]: 5.95 MEQ/L | SODIUM [4]: 143.77 MEQ/L | TOTAL BILIRUBIN [4]: 0.2 mg/dL | TOTAL PROTEIN [4]: 5.97 G/DL | URIC ACID [4]: 1.33 mg/dL
